Series [1] can be described thus: Solubility in PBS. The class given is physicochemical. In short, it runs like this:
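The PBS solution was ultracentrifuged and the supernatant analyzed by HPLC. Its peak area was divided by that of a 50 μM peptide DMSO reference injection and multiplied by 50 uM to give solubility.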

Series [2] is described as follows: CHI Log D procedure. The class given is physicochemical. The conditions noted are these: for CHI Log D: pH 7.4; for chromatographic logD: pH 7.4, CHI Log D.
Series [3] concerns the target T1, full-length beta-Catenin (Uniprot ID P35222) (Homo sapiens, UniProt P35222).
T1 construct: 10 nM full-length beta-Catenin (Uniprot ID P35222)
T1 sequence (P35222 1-781): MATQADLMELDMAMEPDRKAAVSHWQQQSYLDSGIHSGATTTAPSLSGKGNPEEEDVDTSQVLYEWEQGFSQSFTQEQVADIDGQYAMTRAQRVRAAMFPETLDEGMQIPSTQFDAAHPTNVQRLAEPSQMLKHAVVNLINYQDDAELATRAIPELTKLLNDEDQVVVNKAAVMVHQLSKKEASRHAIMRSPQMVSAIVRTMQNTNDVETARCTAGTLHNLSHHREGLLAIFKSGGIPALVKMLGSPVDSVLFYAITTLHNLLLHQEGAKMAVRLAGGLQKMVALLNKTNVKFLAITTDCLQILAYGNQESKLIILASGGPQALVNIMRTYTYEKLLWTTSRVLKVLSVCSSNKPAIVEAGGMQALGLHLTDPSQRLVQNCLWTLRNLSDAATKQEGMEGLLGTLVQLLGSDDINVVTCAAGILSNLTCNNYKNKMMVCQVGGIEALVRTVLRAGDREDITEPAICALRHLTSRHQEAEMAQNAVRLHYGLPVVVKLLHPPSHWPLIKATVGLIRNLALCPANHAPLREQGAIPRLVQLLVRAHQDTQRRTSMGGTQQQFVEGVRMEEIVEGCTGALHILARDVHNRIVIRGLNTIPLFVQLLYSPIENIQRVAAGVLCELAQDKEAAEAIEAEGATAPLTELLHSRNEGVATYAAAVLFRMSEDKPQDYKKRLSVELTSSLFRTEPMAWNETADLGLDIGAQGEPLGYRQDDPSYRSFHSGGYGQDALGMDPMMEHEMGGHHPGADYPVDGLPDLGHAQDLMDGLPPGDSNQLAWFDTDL
The series can be described thus: Fluorescence polarization IC50 (beta-catenin / 5FAM-TCF4 10-53 competition). It counts as binding. For orientation: In fluorescence polarisation assays a small probe gives low polarisation when free and higher when bound to something large.

Where [4] appears, read: fluorescence polarization, read-out: beta-Catenin FP IC50.

Values after ≈ are worked out from the molar mass of the structure shown. Like-named read-outs stand apart in the source and are kept apart here.

In general, Solubility refers to the concentration that dissolves in the medium under given conditions. A higher Solubility goes with much dissolved substance. Consider `CC(=O)N1CCC[C@]12CC=CCCCC1(CCCC=CCCCCCC[C@@](C)(C(=O)N[C@@H](Cc3ccccc3)C(=O)N[C@@H](Cc3csc4ccccc34)C(=O)N[C@@H](Cc3c[nH]cn3)C(N)=O)NC(=O)[C@H]([C@@H](C)O)NC(=O)[C@H](Cc3ccccc3)NC(=O)[C@H](C)NC(=O)[C@H](C)NC(=O)[C@H](CCC(=O)O)NC(=O)[C@H](CC(=O)O)NC1=O)NC(=O)[C@H](CC(C)C)NC(=O)[C@H](CC(=O)O)NC2=O` (stereo partly drawn) [I-618, Ac-PL3-Asp-Leu-B5-Asp-Glu-Ala-Ala-Phe-Thr-S8-Phe-BztA-His-NH2], for which the “Solubility” value in series [1] was determined as 10 µM (≈ 18.7 µg/mL). The “CHI Log D” value in series [2] was 2.617. In addition, the IC50 in series [3] (setting [4]) and in series [3] (read-out: FP EC50) was 0.135 µM in each case.
Take `CC(=O)N1CCC[C@]12CC=CCCCC1(CCCC=CCCCCCC[C@@](C)(C(=O)N[C@@H](Cc3ccccc3)C(=O)N[C@@H](Cc3csc4ccccc34)C(=O)N[C@@H](CCC(N)=O)C(N)=O)NC(=O)[C@H](CC(N)=O)NC(=O)[C@H](Cc3ccccc3)NC(=O)[C@H](C)NC(=O)[C@H](C)NC(=O)[C@H](CCC(=O)O)NC(=O)[C@H](CC(=O)O)NC1=O)NC(=O)[C@H](CC1CCCCC1)NC(=O)[C@H](CC(=O)O)NC2=O` (stereo partly drawn) [I-619, Ac-PL3-Asp-Cha-B5-Asp-Glu-Ala-Ala-Phe-Asn-S8-Phe-BztA-Gln-NH2]: in series [1], the “Solubility” value was found to be 47 µM (≈ 89.7 µg/mL). The “CHI Log D” value in series [2] is 2.677. Further, the IC50 in series [3] (setting [4]) and in series [3] (read-out: FP EC50) was 0.044 µM in each case.
In general, chromatographic logD refers to a lipophilicity value derived from retention on a column. On to `CC(=O)N1CCC[C@]12CC=CCCCC1(CCCC=CCCCCCC[C@@](C)(C(=O)N[C@@H](Cc3ccccc3)C(=O)N[C@@H](Cc3csc4ccccc34)C(=O)N[C@@H](CCC(N)=O)C(N)=O)NC(=O)[C@H](CCCNC(N)=O)NC(=O)[C@H](Cc3ccccc3)NC(=O)[C@H](C)NC(=O)[C@H](C)NC(=O)[C@H](CCC(=O)O)NC(=O)[C@H](CC(=O)O)NC1=O)NC(=O)[C@H](CC(C)C)NC(=O)[C@H](CC(=O)O)NC2=O` (stereo partly drawn) [I-621, Ac-PL3-Asp-Leu-B5-Asp-Glu-Ala-Ala-Phe-Cit-S8-Phe-BztA-Gln-NH2], for which, in series [1], the “Solubility” value amounted to 50 µM (≈ 95.6 µg/mL). The compound also came in with a chromatographic logD in series [2] of 2.34. The IC50 in series [3] (setting [4]) was found to be 0.058 µM.
With `CC(=O)N1CCC[C@]12CC=CCCCC1(CCCC=CCCCCCC[C@@](C)(C(=O)N[C@@H](Cc3ccccc3)C(=O)N[C@@H](Cc3csc4ccccc34)C(=O)N[C@@H](CCC(N)=O)C(N)=O)NC(=O)[C@H]([C@@H](C)O)NC(=O)[C@H](Cc3ccccc3)NC(=O)[C@H](C)NC(=O)[C@H](C)NC(=O)[C@H](CCC(=O)O)NC(=O)[C@H](CC(=O)O)NC1=O)NC(=O)[C@H](CC(C)C)NC(=O)[C@H](CC(=O)O)NC2=O` (stereo partly drawn) [I-622, Ac-PL3-Asp-Leu-B5-Asp-Glu-Ala-Ala-Phe-Thr-S8-Phe-BztA-Gln-NH2], the “Solubility” value in series [1] came out at 45 µM (≈ 83.5 µg/mL). The “CHI Log D” value in series [2] came out at 2.453. Also, the IC50 in series [3] (setting [4]) and in series [3] (read-out: FP EC50) was 0.23 µM throughout.
For the compound `CC(=O)N1CCC[C@]12CC=CCCCC1(CCCC=CCCCCCC[C@@](C)(C(=O)N[C@@H](Cc3ccccc3)C(=O)N[C@@H](Cc3csc4ccccc34)C(=O)N[C@@H](CCC(N)=O)C(N)=O)NC(=O)[C@H]([C@@H](C)O)NC(=O)[C@H](Cc3ccccc3)NC(=O)[C@H](C)NC(=O)[C@H](C)NC(=O)[C@H](CCC(=O)O)NC(=O)[C@H](CC(=O)O)NC1=O)NC(=O)[C@H](CC(C)C)NC(=O)[C@H](CC(=O)O)NC2=O` (stereo partly drawn) [I-623, Ac-PL3-Asp-Leu-B5-Asp-Glu-Ala-Ala-Phe-Thr-S8-Phe-BztA-Gln-NH2], in series [1], the “Solubility” value came out at 44 µM (≈ 81.7 µg/mL). For the same compound, the “CHI Log D” value in series [2] stood at 2.494. Moreover, the IC50 in series [3] (setting [4]) and in series [3] (read-out: FP EC50) was 0.103 µM throughout.
Turning to `CC(=O)N1CCC[C@]12CC=CCCCC1(CCCC=CCCCCCC[C@@](C)(C(=O)N[C@@H](Cc3ccccc3)C(=O)N[C@@H](Cc3csc4ccccc34)C(N)=O)NC(=O)[C@H](CC(N)=O)NC(=O)[C@H](Cc3ccccc3)NC(=O)[C@H](C)NC(=O)[C@H](C)NC(=O)[C@H](CCC(=O)O)NC(=O)[C@H](CC(=O)O)NC1=O)NC(=O)[C@H](CC(C)C)NC(=O)[C@H](CC(=O)O)NC2=O` (stereo partly drawn) [I-624, Ac-PL3-Asp-Leu-B5-Asp-Glu-Ala-Ala-Phe-Asn-S8-Phe-BztA-NH2], the “Solubility” value in series [1] amounted to 27 µM (≈ 47 µg/mL). Besides, in series [2], the “CHI Log D” value is 2.598. Moreover, the IC50 in series [3] (setting [4]) and in series [3] (read-out: FP EC50) was 0.273 µM throughout.
In the case of `CC(=O)N1CCC[C@]12CC=CCCCC1(CCCC=CCCCCCC[C@@](C)(C(=O)N[C@@H](Cc3ccccc3)C(=O)N[C@@H](Cc3csc4ccccc34)C(N)=O)NC(=O)[C@H](CC(N)=O)NC(=O)[C@H](Cc3ccccc3)NC(=O)[C@H](C)NC(=O)[C@H](C)NC(=O)[C@H](CCC(=O)O)NC(=O)[C@H](CC(=O)O)NC1=O)NC(=O)[C@H](CC(C)C)NC(=O)[C@H](CC(=O)O)NC2=O` (stereo partly drawn) [I-625, Ac-PL3-Asp-Leu-B5-Asp-Glu-Ala-Ala-Phe-Asn-S8-Phe-BztA-NH2], the “Solubility” value in series [1] was determined as 47 µM (≈ 81.8 µg/mL). Moreover, the “CHI Log D” value in series [2] came to 2.681. The IC50 in series [3] (setting [4]) and in series [3] (read-out: FP EC50) was 0.119 µM throughout.
Turning to `CC(=O)N1CCC[C@]12CC=CCCCC1(CCCC=CCCCCCC[C@@](C)(C(=O)N[C@@H](Cc3ccccc3)C(=O)N[C@@H](Cc3csc4ccccc34)C(N)=O)NC(=O)[C@H](CC(N)=O)NC(=O)[C@H](Cc3ccccc3)NC(=O)[C@H](C)NC(=O)[C@H](C)NC(=O)[C@H](CCC(=O)O)NC(=O)[C@H](CC(=O)O)NC1=O)NC(=O)[C@H](CC1CCCCC1)NC(=O)[C@H](CC(=O)O)NC2=O` (stereo partly drawn) [I-627, Ac-PL3-Asp-Cha-B5-Asp-Glu-Ala-Ala-Phe-Asn-S8-Phe-BztA-NH2], the “Solubility” value in series [1] came out at 47 µM (≈ 83.7 µg/mL). For the same compound, in series [2], the “CHI Log D” value is reported as 3.002. Besides, the IC50 in series [3] (setting [4]) and in series [3] (read-out: FP EC50) was 0.338 µM in each case.
As to `CC(=O)N1CCC[C@]12CC=CCCCC1(CCCC=CCCCCCC[C@@](C)(C(=O)N[C@@H](Cc3ccccc3)C(=O)N[C@@H](Cc3csc4ccccc34)C(N)=O)NC(=O)[C@H](CCCNC(N)=O)NC(=O)[C@H](Cc3ccccc3)NC(=O)[C@H](C)NC(=O)[C@H](C)NC(=O)[C@H](CCC(=O)O)NC(=O)[C@H](CC(=O)O)NC1=O)NC(=O)[C@H](CC(C)C)NC(=O)[C@H](CC(=O)O)NC2=O` (stereo partly drawn) [I-628, Ac-PL3-Asp-Leu-B5-Asp-Glu-Ala-Ala-Phe-Cit-S8-Phe-BztA-NH2], the “Solubility” value in series [1] was found to be 47 µM (≈ 83.9 µg/mL). Besides, in series [2], the “CHI Log D” value is reported as 3.103. In addition, the IC50 in series [3] (setting [4]) worked out at 0.06 µM; in series [3] (read-out: FP EC50), 0.713 µM.
With `CC[C@H](C)[C@@H]1NC(=O)[C@H](CC(=O)O)NC(=O)[C@]2(CC=CCCCC3(CCCC=CCCCCCC[C@@](C)(C(=O)N[C@@H](Cc4ccccc4)C(=O)N[C@@H](Cc4csc5ccccc45)C(=O)N[C@@H](CCCNC(=N)N)C(N)=O)NC(=O)[C@H](CCC(N)=O)NC(=O)[C@H](Cc4ccccc4)NC(=O)[C@H](C)NC(=O)[C@H](C)NC(=O)[C@H](CCC(=O)O)NC(=O)[C@H](CC(=O)O)NC3=O)NC1=O)CCCN2C(C)=O` (stereo partly drawn) [I-633, Ac-PL3-Asp-Ile-B5-Asp-Glu-Ala-Ala-Phe-Gln-S8-Phe-BztA-Arg-NH2], in series [1], the “Solubility” value was 10 µM (≈ 19.1 µg/mL). In series [2], this compound returned a chromatographic logD of 2.62. Besides, in series [3] (setting [4]), the IC50 stood at 0.088 µM.
In turn, `CC[C@H](C)[C@@H]1NC(=O)[C@H](CC(=O)O)NC(=O)[C@]2(CC=CCCCC3(CCCC=CCCCCCC[C@@](C)(C(=O)N[C@@H](Cc4ccccc4)C(=O)N[C@@H](Cc4csc5ccccc45)C(=O)N[C@@H](CC(C)C)C(N)=O)NC(=O)[C@H](CCC(N)=O)NC(=O)[C@H](Cc4ccccc4)NC(=O)[C@H](C)NC(=O)[C@H](C)NC(=O)[C@H](CCC(=O)O)NC(=O)[C@H](CC(=O)O)NC3=O)NC1=O)CCCN2C(C)=O` (stereo partly drawn) [I-634, Ac-PL3-Asp-Ile-B5-Asp-Glu-Ala-Ala-Phe-Gln-S8-Phe-BztA-Leu-NH2] returned a Solubility in series [1] (Solubility (uM)) of 49 µM (≈ 91.5 µg/mL). Moreover, in series [2], the chromatographic logD amounted to 2.76. Also, the IC50 in series [3] (setting [4]) stood at 0.425 µM.
In the same order, the values of `CC[C@H](C)[C@@H]1NC(=O)[C@H](CC(=O)O)NC(=O)[C@]2(CC=CCCCC3(CCCC=CCCCCCC[C@@](C)(C(=O)N[C@@H](Cc4ccccc4)C(=O)N[C@@H](Cc4csc5ccccc45)C(=O)N[C@@H](Cc4ccccc4)C(N)=O)NC(=O)[C@H](CCC(N)=O)NC(=O)[C@H](Cc4ccccc4)NC(=O)[C@H](C)NC(=O)[C@H](C)NC(=O)[C@H](CCC(=O)O)NC(=O)[C@H](CC(=O)O)NC3=O)NC1=O)CCCN2C(C)=O` (stereo partly drawn) [I-635, Ac-PL3-Asp-Ile-B5-Asp-Glu-Ala-Ala-Phe-Gln-S8-Phe-BztA-Phe-NH2] are 43 µM (≈ 81.8 µg/mL), 2.73 and 0.171 µM.

These data come from US20240116985A1, “STAPLED PEPTIDES AND METHODS THEREOF” (priority 2020, published 2024).
